One assay is filed under the species Oryctolagus cuniculus. The experiment in a line: The compound was evaluated for the inhibition of angiotensin II (AII) induced rabbit aorta constriction. The format is functional.
The subject of a further assay is Rattus norvegicus. The assay is described as follows: The compound was evaluated for the inhibition of Angiotensin II (AII) pressor response in conscious normotensive rats. The following applies: read-out: ID50 (the source's name). Format: functional.
A short description of assay [1]: The compound was evaluated for the inhibition of [125I]- Angiotensin II (AII) binding to rat mesenteric membranes. Format: cell membranes, Membrane.

On to `CCCCc1ncc(/C=C(/Cc2ccsc2)C(=O)O)n1Cc1ccc(C(=O)O)cc1`, for which the Kb in the assay filed under Oryctolagus cuniculus is 0.21 nM. Besides, in the assay with Rattus norvegicus, the ED50 is 0.08 mg/kg.

`CCCCc1nc(Cl)c(CC(=O)O)n1Cc1ccccc1Cl` yielded a Kb in the assay filed under Oryctolagus cuniculus of 2700 nM. Moreover, the ED50 in the assay with Rattus norvegicus was determined as 30 mg/kg.

In the case of `CCCCc1ncc(CC(=O)O)n1Cc1ccccc1Cl`, in the assay with Rattus norvegicus, the ED50 came to 22.5 mg/kg.

In the assay filed under Oryctolagus cuniculus, `CCCCc1ncc(/C=C\C(=O)O)n1Cc1ccccc1Cl` showed a Kb of 810 nM. The IC50 in assay [1] was determined as 8900 nM.

Molecule `CCCCc1ncc(/C=C(/Cc2ccsc2)C(=O)O)n1Cc1ccccc1Cl` gave a Kb in the assay filed under Oryctolagus cuniculus of 51 nM. The ED50 with Rattus norvegicus amounted to 3.6 mg/kg.

`CCCCc1ncc(/C=C(/Cc2ccccc2)C(=O)O)n1Cc1ccccc1Cl` yielded a Kb in the assay listed under Oryctolagus cuniculus of 64 nM. Moreover, the IC50 in assay [1] came to 2600 nM. Further, the ED50 in the assay on Rattus norvegicus is 14 mg/kg.

One may read the IC50 as the concentration that inhibits the measured activity by half. A low value points to inhibition by little substance.
